Key:
[1] = Dialysis study on free form of doxorubicin, HSA/DOX mixture and Composition 7; format: physicochemical; details: PBS pH=7.4
Protocol: The dialysis tube was sealed and put into a glass beaker containing 100 mL of either PBS buffer (pH=7.4) or acetate buffer (pH=5.5) with a magnetic stirring bar. With constant stirring, aliquots (500 uL) at different time points were taken from the glass beaker and analyzed by UV spectrometer. […] It is most interesting to notice that HSA-encapsulated DOX is almost 3.5 times faster at pH=5.5 than at pH=7.4 for being dialyzed out from the dialysis tube.

[2] = congestive heart failure incidents; cited from earlier work
[3] = mouse model, documented; cited from earlier work
[4] = test system: breast cancer cell line, MDA-MB231; assay: Xenograft model efficacy study, breast cancer MDA-MB231, in female athymic nude mice; details: iv; for % TGI, percent tumor growth inhibition compared to Group 1 / MTV (n) Day 20, median tumor volume: Doxorubicin 5, Composition 7 10, Mitoxantrone 3, Composition 6 6 mg/kg, Day 20
Protocol: An efficacy study against breast cancer tumor was carried out on the materials from Example 8 (Composition 7) and Example 7 (Composition 6).

| SMILES | Dialysis behaviour of free form [1] | Lifetime limit (cumulative dose) [2] [mg/m^2] | Maximum tolerated dose (MTD) [3] [mg/kg] | Deaths NTR (non-treatment-related death) ([4]; qwk × 3, 20 day study) | Deaths TR (treatment-related death) ([4]; qwk × 3, 20 day study) | Regressions CR (complete regression) ([4]; qwk × 3, 20 day study) | Regressions PR (partial regression) ([4]; qwk × 3, 20 day study) | % TGI, percent tumor growth inhibition compared to Group 1 ([4]; qwk × 3) [%] | MTV (n) Day 20, median tumor volume ([4]; qwk × 3) | Mean BW Nadir, lowest group mean body weight as % change from Day 1 ([4]; qwk × 3, 20 day study) [%] | Day of Mean BW Nadir ([4]; mouse, in vivo) [days] |
| --- | --- | --- | --- | --- | --- | --- | --- | --- | --- | --- | --- |
| COc1cccc2c1C(=O)c1c(O)c3c(c(O)c1C2=O)C[C@@](O)(C(=O)CO)C[C@@H]3O[C@H]1C[C@H](N)[C@H](O)[C@H](C)O1 [Doxorubicin, doxorubicin] | precipitated in the dialysis bag due to the poor solubility at pH=7.4 | < 450 | 5 | 0 | 0 | 0 | 0 | 34 | 453 (8) mm^2 | – | – |
| O=C1c2c(O)ccc(O)c2C(=O)c2c(NCCNCCO)ccc(NCCNCCO)c21 [Mitoxantrone, mitoxantrone] | – | – | 3 | 0 | 0 | 0 | 0 | 27 | 498 (8) mm^2 | −0.2 | 8 |
